Test results reported in patent US6833373B1, “Method of using an integrin antagonist and one or more antineoplastic agents as a combination therapy in the treatment of neoplasia” (G.D. Searle & Co., priority 1998, dated 2004).

Legend:
[1] = tested on: Rice 500 rat Leydig testicular tumor; assay: Rice 500 rat Leydig testicular tumor model; type: in vivo, SCID mice; conditions: for survival compared to vehicle treated controls: single agents, p<0.05
Method: The Rice 500 rat Leydig testicular tumor grows very quickly when implanted into the flank of SCID mice. […] Tumor growth was reduced by about 50% at the […] dose in this aggressive model. […] Similar to the results seen in the M21 tumor model, compound I7 increased the effects of cisplatin in the Leydig tumor model. […] In a similar experiment, the effects of compound I7, cisplatin and the combination were evaluated for potentiation of overall survival in the Leydig tumor mice. Survival was increased by either compound I7 or cisplatin alone when compared to vehicle treated controls (p<0.05). More importantly, the combination of the two agents almost doubled overall survival (from 17 to 29 days) (p<0.0l combination vs. cisplatin, p<0.001 combination vs. control). Thus, the ability of compound I7 to work alone or in combination therapy to prevent tumor growth clearly correlates with enhanced survival.

[2] = tested on: Lewis Lung carcinoma (LLC); assay: Lewis Lung carcinoma (LLC) model; conditions: for growth of the LLC tumor (primary tumor mass): compound I7 1 and 10 mg/kg BID PO from day 1, cisplatin single ip dose 10 mg/kg on day 5; for median survival time: compound I7 at 10 mg/kg
Method: Tumor cells for implantation were taken from cells either grown in tissue culture (Leydig, M21) or serially passaged as tumors in mice and prepared as tumor brei (LLC). […] Tumor volumes were measured at intervals over the course of the experiments. Tumors were measured with a vernier caliper and volumes were determined using the formula for the volume of a cylinder: tumor volume=width^2×length×0.52. […] On the final day of the experiment, tumors were dissected free and weighed. The data are expressed as the mean +/− SEM. Student's and Mann-Whitney tests were used to assess differences between means or medians using the InStat software package.

[3] = tested on: A2780 human ovarian carcinoma; assay: A2780 mouse model; type: in vivo, SCID mice; conditions: compound I7 10 mg/kg BID PO; cisplatin 10 mg/kg ip once on day 20
Description: compound I7 prevents the growth of human ovarian carcinoma in SCID mice. […] Survival studies are now underway to characterize the survival benefit of combination therapy in this model.

lung tumors = assay: Implanted tumor cells, lung tumors in mice, compound I7 with or without cisplatin; type: in vivo; conditions: compared to the control groups; lung tumors greater than 2,000 mm^3
Description: In an additional experiment, tumor cells were implanted into mice; lung tumors of volumes greater than 2,000 mm^3 were developed. The mice were then separated into four groups, including a control group and three treatment groups: compound I7 alone; compound I7 with cisplatin (a cytotoxic drug); or cisplatin alone. Compared to the control groups, the mice treated with combination compound I7/cisplatin therapy experienced more than an 80 percent reduction in tumor size. In comparison, the group receiving cisplatin alone experienced 50 percent reductions in tumor size and the compound I7 group experienced 20-30 percent reductions. These studies indicate that compound I7 has prominent anti-tumor activity.

human U251 glioblastoma = assay: U251 glioblastoma model; type: in vivo, SCID mice; conditions: for tumor growth (mean tumor volume with time): compound I7 10 mg/kg BID PO day 14-44, BCNU 12 mg/kg once a day on days 14, 18 and 22
Method: compound I7 was evaluated in the human U251 glioblastoma model. The tumors were implanted onto the flanks of SCID mice and the mean tumor volume with time was calculated. […] These clinically relevant measurements of antitumor efficacy establish the antitumor efficacy of compound I7, especially when combined with standard of care chemotherapeutic agents.

[4] = tested on: 435/GFP HAL-1 (MDA-MB-435 breast carcinoma) cells; assay: Metastasis model, 435/GFP HAL-1 orthotopic implantation; type: in vivo, SCID mice; conditions: for reduction in lung metastatic burden: eight weeks
Description: Accurate quantitation of early-stage metastasis in animal models is typically hampered by the lack of sensitive and convenient assays to detect low numbers of tumor cells in a background of normal tissue. Quantitation of late-stage metastasis by counting of visible foci or comparison of organ weights requires substantial tumor burden which can take 3-4 months to develop in conventional models of breast cancer, and generally cannot detect subtle differences. […] The GFP-transfected cells are easily detected by flow cytometry, and fixation of the cells or the addition of antibodies or exogenous substrates is not required. A highly aggressive clone was isolated from the lung of a SCID mouse implanted in the mammary fat pad with several GFP-expressing clones. […] Eight weeks later, lungs were removed and weighed.

[5] = tested on: Cancer cells implanted subcutaneously; conditions: large-volume tumors (>1,500 mm^3); dose dependent; cited from earlier work
M21 human melanoma cells = assay: M21 human melanoma model; type: in vivo, SCID mice
Method: In the M21 model, M21 human melanoma cells implanted subcutaneously into SCID mice developed tumors which grew to approximately 400 mm^3 within 30 days. […] Cisplatin was administered once by ip injection (10 mg/kg) on day 14. […] The results of this dose sequencing experiment establish the efficacy of compound I7 in combination therapy with cisplatin when administered before, concurrent with, or after cisplatin dosing.

[6] = tested on: angiogenesis induced by bFGF or VEGF; assay: Corneal micropocket assay; type: in vivo, female C57BL6 mice; conditions: BID
Description: In this model, an intrastromal pocket is surgically created in the normally avascular cornea of female C57BL6 mice 1 mm distance from the corneal-scleral junction. A slow release hydron polymer pellet containing an angiogenic growth factor (bFGF or VEGF) is inserted into the corneal pocket. The pocket is self sealing and antibiotic ointment is placed in the eye.

[7] = 15 mg/kg/day, biliary cirrhosis trials; cited from earlier work

N.N.[Cl][Pt][Cl] [cisplatin, reference compound]
survival compared to vehicle treated controls [1]: increased
time to develop a tumor >500 mm^3 ([2]; cisplatin 10 mg/kg ip day 5, compound I7 10 mg/kg): 22.4 days
growth of the LLC tumor (primary tumor mass) [2]: significantly retarded the growth
median survival time ([2]; cisplatin 10 mg/kg ip day 5): 33 days
tumor growth [3]: decreasing tumor growth
reduction in tumor size (lung tumors): 50%

O=NN(CCCl)C(=O)NCCCl [BCNU, carmustine]
tumor growth (mean tumor volume with time) (human U251 glioblastoma): regression of the tumors to the limit of detectability, but the tumors grew back
duration of the response (human U251 glioblastoma; p<0.01): 5 days

O=C(O)C[C@@H](NC(=O)CNC(=O)c1cc(O)cc(NC2=NCC(O)CN2)c1)c1cc(Cl)cc(Br)c1O (stereo partly drawn) [compound I7, (3R)-N-[3-hydroxy-5-[(1,4,5,6-tetrahydro-5-hydroxy-2-pyrimidinyl)amino]benzoyl]glycyl-3-(3-bromo-5-chloro-2-hydroxyphenyl)-b-alanine]
reduction in lung metastatic burden ([4]; 10 mg/kg BID orally): 55%
reduction in lung metastatic burden ([4]; 30 mg/kg BID orally): 69%
spontaneous metastasis of 435 breast carcinoma cells to the lungs ([4]; 1, 10 and 30 mg/kg BID orally, visual counting or flow cytometry): dose-dependently reduced
growth of the primary tumor mass ([4]; mouse, in vivo): did not delay the growth
histological examination of lung sections ([4]; mouse, in vivo): dramatic reduction in the number of large macroscopic metastases and an increase in the presence of microscopic foci of metastases
reduced tumor growth [5]: ≤ 85%
tumor growth (mean tumor volume with time) (human U251 glioblastoma): little inhibition of tumor growth
time to tumor volume >200 mm^3 (M21 human melanoma cells; 10 mg/kg): 27 days
growth of M21 tumors (M21 human melanoma cells; oral BID, at time of tumor implantation or beginning up to 21 days after): dose-dependently retarded the growth
tumor growth reduced ([1]; 2 mg/ml dose in drinking water): about 50%
inhibition of tumor growth ([1]; compound I7 10 or 100 mg/kg BID PO from day 5, monotherapy or with cisplatin 10 mg/kg ip once day 5, p<0.01 vs control): Dose-related inhibition of tumor growth
tumor growth ([1]; in the drinking water at 0.02 to 2 mg/ml): inhibited tumor growth dose-dependently
survival compared to vehicle treated controls [1]: increased
growth of the LLC tumor (primary tumor mass) [2]: did not affect the growth
median survival time ([2]; cisplatin 10 mg/kg ip day 5): 33 days
angiogenesis induced by either bFGF or VEGF [6]: inhibited angiogenesis
inhibition of the angiogenic response ([6]; maximal inhibitory activity at 10 mg/kg BID orally): up to 42%
tumor growth [3]: equally effective as cisplatin
reduction in tumor size (lung tumors): 20-30%

C[C@H](CCC(=O)O)[C@H]1CC[C@H]2[C@@H]3[C@@H](O)C[C@@H]4C[C@H](O)CC[C@]4(C)[C@H]3CC[C@]12C [URSO, Ursodeoxycholate]
tolerability [7]: extremely well tolerated and without toxicity
